Data reported in patent US20190183939A1, “CELL THERAPY USING MIDBRAIN-TYPE NEURAL STEM CELLS TREATED WITH VITAMIN C” (INDUSTRY-UNIVERSITY COOPERATION FOUNDATION HANYANG …, priority 2017, published 2019).

What was measured:
[1] = tested on: GAD67, TPH2 and GFAP promoters; experiment: DIP-qPCR and ChIP-qPCR on GAD67, TPH2 and GFAP promoters; format: cell-based, rat; details: VC administration to proliferating VM-NSCs
Text: Foxa2 and Nurr1 binding sites were identified using the Jaspar database (http://jaspar.genereg.net/) using an 80% score threshold. Predicted Foxa2 and Nurr1 binding sites were coupled with phylogenetic footprinting to eliminate spurious predictions with specified position weight matrix (PWM) settings, as described in the following reference. [Sandelin, A., and Wasserman, W. W. (2004). Constrained binding site diversity within families of transcription factors enhances pattern discovery bioinformatics. Journal of molecular biology 338, 207-215] (Table 2). ChIP and DIP assays were carried out as described in the following reference. [Prolonged membrane depolarization enhances midbrain dopamine neuron differentiation via epigenetic histone modifications. Stem Cells 29, 1861-1873]. Briefly, chromatin or genomic DNA was sheared to an average of 200-500 bp in length using a sonication Bioruptor (BMS, Seoul, Korea) and immunoprecipitated using the antibodies listed in Table 1. Immunoprecipitated DNA fragments were collected using magnetic beads (Invitrogen), purified, and subjected to real-time PCR using the primers listed in Table 3. The comparative cycle threshold method was used to quantify the results. Data were normalized to the input DNA.

[2] = tested on: JMJD3; experiment: Jmjd3 enzyme activity in nuclear fraction; format: biochemical, rat; details: VC 200 μM, 4 days of proliferation
Method: TET and JMJD3 activities were measured using Epigenase™ 5mC hydroxylase TET Activity/Inhibition Assay Kit and Epigenase™ JMJD3/UTX Demethylase Activity/Inhibition Assay Kit (Epigentek, Farmingdale, N.Y.), respectively. Briefly, cells from two 10 cm-dishes were harvested after 4 days of proliferation with or without VC (200 μM) treatment. Nuclear fractions were obtained from the cells using the EpiQuik nuclear extraction kit (Epigentek), and subjected to enzyme activity analyses.

Q: What does the source list for `O=C1O[C@H]([C@@H](O)CO)C(O)=C1O` [VC, L-ascorbic acid]?
A: epigenetic codes on TPH2 and GAD67 genes [1]: did not affect; Jmjd enzyme activity in nuclear fractions [2]: increase
